Key:
Format in all cases: biochemical
[1] = molecular target: T1, calpain-I isolated from human erythrocytes (Homo sapiens, UniProt P07384); test: Calpain I kinetic fluorescence enzyme inhibition assay; details: apparent Ki from IC50 by Cheng-Prussoff; average of 2 to 4 dose-effect plots
T1 construct: calpain-I—isolated from human erythrocytes; purchased Calbiochem 208713; host or cells: human erythrocytes (tissue isolate)
T1 sequence (P07384 1-714): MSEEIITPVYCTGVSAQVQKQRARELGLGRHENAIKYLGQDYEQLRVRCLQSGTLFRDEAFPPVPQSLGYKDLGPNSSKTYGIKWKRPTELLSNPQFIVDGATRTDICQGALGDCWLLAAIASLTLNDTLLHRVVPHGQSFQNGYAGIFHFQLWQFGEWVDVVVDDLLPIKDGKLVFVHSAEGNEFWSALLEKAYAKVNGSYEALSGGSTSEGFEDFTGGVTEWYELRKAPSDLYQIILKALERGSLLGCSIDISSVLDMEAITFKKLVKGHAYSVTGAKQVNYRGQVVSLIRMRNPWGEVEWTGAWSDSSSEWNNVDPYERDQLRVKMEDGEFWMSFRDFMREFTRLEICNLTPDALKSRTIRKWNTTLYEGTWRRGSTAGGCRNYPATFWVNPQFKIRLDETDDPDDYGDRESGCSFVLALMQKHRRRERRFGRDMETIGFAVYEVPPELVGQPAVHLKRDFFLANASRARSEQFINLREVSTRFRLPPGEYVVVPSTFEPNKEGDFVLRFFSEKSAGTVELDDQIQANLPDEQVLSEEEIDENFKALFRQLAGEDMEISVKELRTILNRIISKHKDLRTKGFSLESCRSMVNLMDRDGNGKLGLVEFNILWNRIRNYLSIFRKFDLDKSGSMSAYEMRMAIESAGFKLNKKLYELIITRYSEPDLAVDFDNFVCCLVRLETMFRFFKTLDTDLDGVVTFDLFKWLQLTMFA
T1 sequence (P04632 1-268 partner): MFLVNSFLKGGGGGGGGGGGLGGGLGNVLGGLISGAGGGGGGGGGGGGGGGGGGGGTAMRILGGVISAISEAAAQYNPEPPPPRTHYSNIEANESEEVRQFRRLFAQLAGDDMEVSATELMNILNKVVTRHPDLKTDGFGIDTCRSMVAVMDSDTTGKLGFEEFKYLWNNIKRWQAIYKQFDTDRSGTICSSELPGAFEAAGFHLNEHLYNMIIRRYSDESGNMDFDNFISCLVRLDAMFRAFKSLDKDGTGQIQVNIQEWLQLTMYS

[2] = molecular target: T2, cathepsin B isolated from human liver (Homo sapiens, UniProt P07858); test: Cathepsin B kinetic fluorescence enzyme inhibition assay; details: selectivity ratio versus calpain I
T2 construct: cathepsin B—isolated from human liver; purchased Calbiochem 219362; host or cells: human liver (tissue isolate)
In short: (§1)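 Cathepsin B (0.25 nM, human liver) with 100 μM Z-Phe-Arg-AMC; L (1 nM, human liver) with 2 μM Z-Phe-Arg-AMC; S (0.5 nM, recombinant) with 20 μM Z-Val-Val-Arg-AMC. pH 6.0 MES buffer, 2.5 mM L-cysteine, room temperature. Kinetic fluorescence (ex 390/em 460 nm); apparent Ki from IC50 by Cheng-Prusoff.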

[3] = molecular target: T3, cathepsin K activated from recombinant human procathepsin K (Homo sapiens, UniProt P43235); test: Cathepsin K kinetic fluorescence enzyme inhibition assay; details: selectivity ratio versus calpain I
T3 construct: purchased Calbiochem 342001; host or cells: E. coli
T3 sequence (P43235 115-329): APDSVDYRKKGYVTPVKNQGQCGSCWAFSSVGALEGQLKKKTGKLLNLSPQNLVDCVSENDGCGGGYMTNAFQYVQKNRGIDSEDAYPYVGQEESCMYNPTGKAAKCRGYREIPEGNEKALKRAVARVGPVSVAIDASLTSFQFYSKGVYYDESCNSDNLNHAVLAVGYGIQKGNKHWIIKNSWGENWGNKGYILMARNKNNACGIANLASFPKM

[4] = molecular target: T4, cathepsin L isolated from human liver (Homo sapiens, UniProt P07711); test: Cathepsin L kinetic fluorescence enzyme inhibition assay; details: selectivity ratio versus calpain I
T4 construct: cathepsin L—isolated from human liver; purchased Calbiochem 219402; host or cells: human liver (tissue isolate)
T4 sequence (P07711 114-333): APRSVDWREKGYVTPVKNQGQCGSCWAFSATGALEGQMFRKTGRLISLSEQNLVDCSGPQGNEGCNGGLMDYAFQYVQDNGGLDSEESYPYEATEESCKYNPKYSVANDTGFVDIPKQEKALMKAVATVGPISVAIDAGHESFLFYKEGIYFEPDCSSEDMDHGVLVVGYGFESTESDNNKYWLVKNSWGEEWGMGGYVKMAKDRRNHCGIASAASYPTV
In short: as §1

[5] = molecular target: T5, recombinant human cathepsin S (Homo sapiens, UniProt P25774); test: Cathepsin S kinetic fluorescence enzyme inhibition assay; details: selectivity ratio versus calpain I
T5 construct: purchased Calbiochem 219343; host or cells: E. coli
T5 sequence (P25774 115-331): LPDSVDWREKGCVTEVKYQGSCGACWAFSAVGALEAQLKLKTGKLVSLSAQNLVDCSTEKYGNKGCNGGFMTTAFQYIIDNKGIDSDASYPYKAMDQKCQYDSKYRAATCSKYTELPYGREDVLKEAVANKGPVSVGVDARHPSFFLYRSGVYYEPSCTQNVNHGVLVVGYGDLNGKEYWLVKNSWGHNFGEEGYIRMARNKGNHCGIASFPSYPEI
In short: as §1

Row | Structure (SMILES) | Ki [1] [µM] | Sel cat. B (Ki(cathepsin B)/Ki(calpain) ratio) [2] | Sel cat. K (Ki(cathepsin K)/Ki(calpain) ratio) [3] | Sel cat. L (Ki(cathepsin L)/Ki(calpain) ratio) [4] | Sel cat. S (Ki(cathepsin S)/Ki(calpain) ratio) [5]
1 | COc1ccc(F)cc1-c1ccn(-c2ncccc2C(=O)NC(Cc2ccccc2)C(=O)C(N)=O)n1 (stereo not shown) [Example 130, N-[3-Amino-2,3-dioxo-1-(phenylmethyl)propyl]-2-{3-[5-fluoro-2-(methyloxy)phenyl]-1H-pyrazol-1-yl}pyridine-3-carboxamide] | ≤ 0.04 | ++ (Ki(cathepsin B)/Ki(calpain) ratio of ≧30) | ++ (Ki(cathepsin K)/Ki(calpain) ratio of ≧30) | ++ (Ki(cathepsin L)/Ki(calpain) ratio of ≧50) | ++ (Ki(cathepsin S)/Ki(calpain) ratio of ≧100)
2 | COc1ccc(Cl)cc1-c1ccn(-c2ncccc2C(=O)NC(Cc2ccccc2)C(=O)C(N)=O)n1 (stereo not shown) [Example 131, N-[3-Amino-2,3-dioxo-1-(phenylmethyl)propyl]-2-{3-[5-chloro-2-(methyloxy)phenyl]-1H-pyrazol-1-yl}pyridine-3-carboxamide] | ≤ 0.04 | ++ (Ki(cathepsin B)/Ki(calpain) ratio of ≧30) | ++ (Ki(cathepsin K)/Ki(calpain) ratio of ≧30) | ++ (Ki(cathepsin L)/Ki(calpain) ratio of ≧50) | ++ (Ki(cathepsin S)/Ki(calpain) ratio of ≧100)
3 | NC(=O)C(=O)C(Cc1ccc(OC(F)(F)F)cc1)NC(=O)c1cccnc1-n1ccc(-c2ccc(F)cc2)n1 (stereo not shown) [Example 132, N-[3-Amino-2,3-dioxo-1-({4-[(trifluoromethyl)oxy]phenyl}methyl)propyl]-2-[3-(4-fluorophenyl)-1H-pyrazol-1-yl]pyridine-3-carboxamide] | 0.04 to 0.1 | + (10≦Ki(cathepsin B)/Ki(calpain)<30) | ++ (Ki(cathepsin K)/Ki(calpain) ratio of ≧30) | ++ (Ki(cathepsin L)/Ki(calpain) ratio of ≧50) | ++ (Ki(cathepsin S)/Ki(calpain) ratio of ≧100)
4 | COc1ccc(CC(NC(=O)c2cccnc2-n2ccc(-c3cccc4ccccc34)n2)C(=O)C(N)=O)cc1 (stereo not shown) [Example 135, N-(3-Amino-1-{[4-(methyloxy)phenyl]methyl}-2,3-dioxopropyl)-2-(3-naphthalen-1-yl-1H-pyrazol-1-yl)pyridine-3-carboxamide] | ≤ 0.04 | ++ (Ki(cathepsin B)/Ki(calpain) ratio of ≧30) | ++ (Ki(cathepsin K)/Ki(calpain) ratio of ≧30) | ++ (Ki(cathepsin L)/Ki(calpain) ratio of ≧50) | ++ (Ki(cathepsin S)/Ki(calpain) ratio of ≧100)
5 | COc1ccc(CC(NC(=O)c2cccnc2-n2ccc(-c3ccc(F)cc3OC)n2)C(=O)C(N)=O)cc1 (stereo not shown) [Example 136, N-(3-Amino-1-{[4-(methyloxy)phenyl]methyl}-2,3-dioxopropyl)-2-{3-[4-fluoro-2-(methyloxy)phenyl]-1H-pyrazol-1-yl}pyridine-3-carboxamide] | ≤ 0.04 | ++ (Ki(cathepsin B)/Ki(calpain) ratio of ≧30) | ++ (Ki(cathepsin K)/Ki(calpain) ratio of ≧30) | ++ (Ki(cathepsin L)/Ki(calpain) ratio of ≧50) | ++ (Ki(cathepsin S)/Ki(calpain) ratio of ≧100)
6 | COc1ccc(CC(NC(=O)c2cccnc2-n2ccc(-c3ccc4c(c3)OC(F)(F)O4)n2)C(=O)C(N)=O)cc1 (stereo not shown) [Example 137, N-(3-Amino-1-{[4-(methyloxy)phenyl]methyl}-2,3-dioxopropyl)-2-[3-(2,2-difluoro-1,3-benzodioxol-5-yl)-1H-pyrazol-1-yl]pyridine-3-carboxamide] | 0.04 to 0.1 | + (10≦Ki(cathepsin B)/Ki(calpain)<30) | + (10≦Ki(cathepsin K)/Ki(calpain)<30) | ++ (Ki(cathepsin L)/Ki(calpain) ratio of ≧50) | ++ (Ki(cathepsin S)/Ki(calpain) ratio of ≧100)
7 | NC(=O)C(=O)C(Cc1ccccc1)NC(=O)c1cccnc1-n1cc2c(n1)-c1cc(Cl)ccc1OC2 (stereo not shown) [Example 140, N-[3-Amino-2,3-dioxo-1-(phenylmethyl)propyl]-2-(8-chlorochromeno[4,3-c]pyrazol-2(4H)-yl)pyridine-3-carboxamide] | ≤ 0.04 | + (10≦Ki(cathepsin B)/Ki(calpain)<30) | ++ (Ki(cathepsin K)/Ki(calpain) ratio of ≧30) | ++ (Ki(cathepsin L)/Ki(calpain) ratio of ≧50) | ++ (Ki(cathepsin S)/Ki(calpain) ratio of ≧100)

Further lines, with some results ahead:

Row | Ki [1] [µM] | Structure (SMILES) | Sel cat. B (Ki(cathepsin B)/Ki(calpain) ratio) [2] | Sel cat. K (Ki(cathepsin K)/Ki(calpain) ratio) [3] | Sel cat. L (Ki(cathepsin L)/Ki(calpain) ratio) [4] | Sel cat. S (Ki(cathepsin S)/Ki(calpain) ratio) [5]
8 | ≤ 0.04 | COc1cc(F)ccc1-c1ccn(-c2ncccc2C(=O)NC(Cc2ccccc2)C(=O)C(N)=O)n1 (stereo not shown) [Example 125, N-[3-Amino-2,3-dioxo-1-(phenylmethyl)propyl]-2-{3-[4-fluoro-2-(methyloxy)phenyl]-1H-pyrazol-1-yl}pyridine-3-carboxamide] | ++ (Ki(cathepsin B)/Ki(calpain) ratio of ≧30) | ++ (Ki(cathepsin K)/Ki(calpain) ratio of ≧30) | ++ (Ki(cathepsin L)/Ki(calpain) ratio of ≧50) | ++ (Ki(cathepsin S)/Ki(calpain) ratio of ≧100)
9 | ≤ 0.04 | NC(=O)C(=O)C(Cc1ccc(OCc2ccccc2)cc1)NC(=O)c1cccnc1-n1ccc(-c2ccccc2)n1 (stereo not shown) [Example 127, N-[3-Amino-2,3-dioxo-1-({4-[(phenylmethyl)oxy]phenyl}methyl)propyl]-2-(3-phenyl-1H-pyrazol-1-yl)pyridine-3-carboxamide] | ++ (Ki(cathepsin B)/Ki(calpain) ratio of ≧30) | ++ (Ki(cathepsin K)/Ki(calpain) ratio of ≧30) | ++ (Ki(cathepsin L)/Ki(calpain) ratio of ≧50) | ++ (Ki(cathepsin S)/Ki(calpain) ratio of ≧100)
10 | 0.04 to 0.1 | NC(=O)C(=O)C(Cc1ccc(OC(F)(F)F)cc1)NC(=O)c1cccnc1-n1ccc(-c2ccccc2)n1 (stereo not shown) [Example 133, N-[3-Amino-2,3-dioxo-1-({4-[(trifluoromethyl)oxy]phenyl}methyl)propyl]-2-(3-phenyl-1H-pyrazol-1-yl)pyridine-3-carboxamide] | ++ (Ki(cathepsin B)/Ki(calpain) ratio of ≧30) | ++ (Ki(cathepsin K)/Ki(calpain) ratio of ≧30) | ++ (Ki(cathepsin L)/Ki(calpain) ratio of ≧50) | ++ (Ki(cathepsin S)/Ki(calpain) ratio of ≧100)
11 | 0.04 to 0.1 | COc1cc(Cl)ccc1-c1ccn(-c2ncccc2C(=O)NC(Cc2ccccc2)C(=O)C(N)=O)n1 (stereo not shown) [Example 139, N-[3-Amino-2,3-dioxo-1-(phenylmethyl)propyl]-2-{3-[4-chloro-2-(methyloxy)phenyl]-1H-pyrazol-1-yl}pyridine-3-carboxamide] | + (10≦Ki(cathepsin B)/Ki(calpain)<30) | ++ (Ki(cathepsin K)/Ki(calpain) ratio of ≧30) | ++ (Ki(cathepsin L)/Ki(calpain) ratio of ≧50) | ++ (Ki(cathepsin S)/Ki(calpain) ratio of ≧100)
